The text below walks through data of publication PMC8003416, “Modulation of Human Phenylalanine Hydroxylase by 3-Hydroxyquinolin-2(1H)-One Derivatives” (Biomolecules, 2021).

Experiment [1] addresses T1, human phenylalanine hydroxylase (hPAH) (Homo sapiens, UniProt P00439).
T1 construct: Recombinant full-length wild-type (WT) hPAH was expressed in E. coli Top10 cells in fusion with a hexa-histidyl peptide; made in house; host or cells: E. coli Top10
T1 sequence (P00439 1-452): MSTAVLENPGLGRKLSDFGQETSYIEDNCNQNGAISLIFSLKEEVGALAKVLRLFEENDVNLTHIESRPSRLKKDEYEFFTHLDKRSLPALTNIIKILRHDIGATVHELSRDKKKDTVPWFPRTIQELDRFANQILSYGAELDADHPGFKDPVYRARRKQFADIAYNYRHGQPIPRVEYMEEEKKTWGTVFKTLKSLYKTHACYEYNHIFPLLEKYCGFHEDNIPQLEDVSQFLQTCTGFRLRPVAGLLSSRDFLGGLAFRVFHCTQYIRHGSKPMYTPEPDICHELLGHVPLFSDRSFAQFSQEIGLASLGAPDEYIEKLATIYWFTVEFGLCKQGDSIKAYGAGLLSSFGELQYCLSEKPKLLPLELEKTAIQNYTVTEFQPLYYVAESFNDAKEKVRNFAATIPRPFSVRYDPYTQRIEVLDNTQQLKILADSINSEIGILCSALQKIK
Description: Time-dependent loss of hPAH activity at 42 °C. Type of experiment: biochemical. The settings on record: 100 μM compound; for protective effect on hPAH activity over time: up to 120 min at 42 °C; for remaining activity at 100 µM: read-out: hPAH residual activity, % of control sample. The method, then:
The hPAH time-dependent loss of activity at a fixed temperature was assessed in a period of 120 min, in the absence and presence of compounds. In these assays, the enzymatic reaction was performed essentially as described above for the Phe/3HQ-A condition. Compounds (100 μM) were pre-incubated with the enzyme at 42 °C. After a 30, 45, 60, 90 and 120 min period, an aliquot of the protein (5 μg) was incubated, at 37 °C, with 100 μM L-Phe for 4 min, and the reaction proceeded as above at 37 °C [19].

The target of experiment [2] is T1, human phenylalanine hydroxylase (hPAH). Description: Differential scanning fluorimetry (thermal denaturation). The settings on record: for ΔTm1 (regulatory domain) / ΔTm2 (catalytic domain): 100 μM compound vs 1% DMSO control, * S.D. < 0.01. Type of experiment: binding. The method, then: Thermal denaturation profiles of recombinant hPAH were obtained by differential scanning fluorimetry (DSF) in a C1000 Touch thermal cycler equipped with a CFX96 optical reaction module (Bio-Rad; Hercules, CA, USA) as previously described. Briefly, DSF assays (n = 3) were performed using 100 μg/mL hPAH tetramers (final concentration of 0.45 μM of tetramer), SYPRO Orange (5000-fold commercially available stock solution; Invitrogen; Carlsbad, CA, USA) at a 2.5-x final concentration and ramping the temperature from 20 to 90 °C, at 1 °C/min. Fluorescence data were acquired using the FRET channel. Data were processed using CFX Manager Software V3.0 (Bio-Rad) and the GraphPad Prism. Temperature scan curves were fitted to a biphasic dose–response function and the Tm values were obtained from the midpoint of the first (Tm1) and second transitions (Tm2) corresponding, respectively, to the thermal denaturation of the regulatory and catalytic domains. The Tm values in the presence of 3HQ were compared to those obtained in the presence of 1% DMSO (vehicle control) and a change in the Tm was considered significant when the |ΔTm| ≥ 2 °C [22].
On the technique in general: Differential scanning fluorimetry follows unfolding on heating by fluorescence.

The target of experiment [3] is T2, hPAH transiently expressed in HEK-293T cells (Homo sapiens, UniProt P00439).
T2 construct: expressed in transfected cells; host or cells: HEK-293T (ATCC CRL-11268)
T2 sequence (P00439 1-452): T1 sequence (P00439 1-452)
Description: hPAH activity and protein level in transfected HEK-293T cells. Conditions: 24 h; for hPAH protein content after translation block / increase in hPAH expression (protein level): 50 μM; for hPAH protein content after translation block: then 10 μg/mL puromycin, 1, 3, 6 h; for increase in hPAH expression (protein level): western blot normalized to GAPDH; for hPAH activity in cell lysate: 50 and 100 μM, vs DMSO. Type of experiment: cell-based. The method, then: HEK-293T cells (ATCC CRL-11268) were grown in RPMI 1640 medium (Gibco Life Technologies¸ Carlsbad, CA, USA) and supplemented with heat inactivated (60 °C for 30 min) fetal bovine serum (10%; v/v), penicillin (100 U/mL) and streptomycin (0.1 mg/mL) at 37 °C, in 5% CO2 in a humidified atmosphere. 1 × 10^5 cells were transfected with 750 ng of DNA (eukaryotic vector expressing hPAH; pEF-DEST51-PAH-WT) using lipofectamine (Invitrogen) as the transfection agent. Compounds (50 and 100 μM) or DMSO (0.5 and 1%) were added 4 h after transfection, and cells were further incubated for 24 h. For sample collection cells were trypsinized with 500 μL of TripLE Express (Gibco Life Technologies), centrifuged at 200× g for 5 min, at 4 °C, and washed with PBS. The pellet was resuspended in 50 μL of PBS with 200 μM PMSF and cells were disrupted by passage (≈20×) through a fine needle. The cell debris were removed by centrifugation at 14,000× g for 5 min at 4 °C and the obtained cell lysates were used for enzymatic activity assays and western blot analysis. Three independent cell cultures were performed.
For the stability assays, after 24 h incubation with compounds, protein translation was stopped by the addition of 10 μg/mL puromycin (Sigma-Aldrich). Cells were collected at 0, 1, 3, and 6 h after blockage of translation. Two independent cell cultures were performed.
The hPAH activity of cell lysates was measured essentially as described in [26] in a final volume of 200 μL containing 1 mM L-Phe, 250 mM Na-Hepes, pH 7, 0.1 mg/mL catalase and 20 μL of cell lysate. After 4 min of pre-incubation, 100 μM (NH4)2Fe(II)SO4 was added to the mixture. Two min after ferrous ammonium sulphate addition, the reaction was initiated by the injection of BH4 (75 μM). Tyrosine production was assessed by measuring the increase in fluorescence intensity (λexc 274 nm and λem 304 nm) in a FLUOstar Omega microplate reader (BMG Labtech), at 25 °C, during 30 min. Enzyme activity was determined as the amount of L-Tyr produced per min per mg of total protein. For each cell culture enzymatic assays were performed in triplicate.
For western blot analysis of cell lysates, 4 μg of total protein were applied on an 8 to 16% mini-protean TGX precast polyacrylamide gel (Bio-Rad), and the proteins were transferred to a polyvinylidene fluoride (PVDF; GE Healthcare) membrane and visualized by immunodetection using mouse anti-PAH (MAB 5278; Millipore; Burlington, MA, USA) and mouse anti-glyceraldehyde 3-phosphate dehydrogenase (GAPDH (loading control); sc-365062, Santa Cruz Biotechnology; Dallas, TX, USA) as the primary antibodies and the anti-mouse IgG-HRP (W402B, Promega; Madison, WI, USA) as the secondary antibody. Immunoblots were developed with enhanced chemiluminescent agents (ECL Prime; GE Healthcare) and the images were acquired in a charge-coupled device imager ChemiDoc XRS (Bio-Rad) using the Quantity One software (Bio-Rad).
On the technique in general: In western blotting, separated proteins are transferred to a membrane and probed.

[4] abbreviates: 100 μM compound in 1% DMSO, control 43.4 ± 0.6.
Where [5] appears, read: 100 μM compound in 1% DMSO, control 53.5 ± 0.4.

Where two headings read alike, the source gives them in different places.

`CCOC(=O)[C@H](Cc1ccccc1)NC(=O)c1c(O)c(=O)[nH]c2ccc(OC(F)(F)F)cc12` [Compound 3]: the “protective effect on hPAH activity over time” value in experiment [1] is recorded as “protective effect was not observed”. For the same molecule, the “Tm1 (regulatory domain)” value in experiment [2] (setting [4]) came out at 51.7 ± 0.4 °C. Further, the “Tm2 (catalytic domain)” value in experiment [2] (setting [5]) was found to be 53.6 ± 0.2 °C. In experiment [2], the “ΔTm1 (regulatory domain)” value is “+8.3 ± 0.06 °C” and the “ΔTm2 (catalytic domain)” value is “+0.1 ± 0.01 °C”.

On to `COC(=O)CC[C@H](NC(=O)c1c(O)c(=O)[nH]c2ccc(OC(F)(F)F)cc12)C(=O)OC` [Compound 9], for which the remaining activity at 100 µM in experiment [1] (60 min at 42 °C) stood at 136 ± 7%. Besides, the remaining activity at 100 µM in experiment [1] (90 min at 42 °C) was 121 ± 32%. Moreover, the remaining activity at 100 µM in experiment [1] (120 min at 42 °C) was 176 ± 32%. The “Tm1 (regulatory domain)” value in experiment [2] (setting [4]) was found to be 43.5 ± 0.1 °C. Further, the “Tm2 (catalytic domain)” value in experiment [2] (setting [5]) is 53.0 ± 0.1 °C. In experiment [2], the “ΔTm1 (regulatory domain)” value is “+0.2 ± 0.01 °C” and the “ΔTm2 (catalytic domain)” value was -0.5 ± 0.01 °C. Also, in experiment [3], the “hPAH protein content after translation block” value is listed as “hPAH protein content is maintained as a function of time”, the “increase in hPAH expression (protein level)” value is 1.8 fold and the “hPAH activity in cell lysate” value is given as “higher activity”.

For `COC(=O)CNC(=O)c1c(O)c(=O)[nH]c2ccc(OC(F)(F)F)cc12` [Compound 11], the remaining activity at 100 µM in experiment [1] (90 min at 42 °C) turned out to be 117 ± 33%. In experiment [1] (120 min at 42 °C), the remaining activity at 100 µM was 168 ± 64%. Further, the “Tm1 (regulatory domain)” value in experiment [2] (setting [4]) is 47.4 ± 0.1 °C. Also, the “Tm2 (catalytic domain)” value in experiment [2] (setting [5]) stood at 53.6 ± 0.2 °C. For the same molecule, the “ΔTm1 (regulatory domain)” value in experiment [2] was “+4.0 ± 0.01 °C”. Further, in experiment [3], the “hPAH protein content after translation block” value is listed as “hPAH protein content is maintained as a function of time”, the “increase in hPAH expression (protein level)” value was “did not affect the hPAH protein levels” and the “hPAH activity in cell lysate” value is on record as “higher activity”.

For `O=C(NCCc1ccccc1)c1c(O)c(=O)[nH]c2ccc(OC(F)(F)F)cc12` [Compound 8], in experiment [1], the “protective effect on hPAH activity over time” value is “protective effect was not observed”. For the same molecule, the “Tm1 (regulatory domain)” value in experiment [2] (setting [4]) amounted to 43.3 ± 0.1 °C. Moreover, the “Tm2 (catalytic domain)” value in experiment [2] (setting [5]) came to 52.2 ± 0.3 °C. Further, in experiment [2], the “ΔTm2 (catalytic domain)” value is -1.3 ± 0.01 °C.

For `N[C@@H](Cc1ccccc1)C(=O)O` [L-Phe, L-phenylalanine, reference compound], in experiment [2] (1 mM L-Phe, 1% DMSO), the “Tm1 (regulatory domain)” value came out at 51.0 ± 0.2 °C and the “Tm2 (catalytic domain)” value stood at 58.4 ± 0.04 °C.
